Laboratory results: US20250387426A1 (priority 2024, published 2025)

Key:
migraine headache = conditions: human, in vivo
tension headache = conditions: human, in vivo

C[C@@H]1[C@H](c2ccccc2)C[C@H](NC(=O)c2cnc3c(c2)C[C@@]2(C3)C(=O)Nc3ncccc32)C(=O)N1CC(F)(F)F [Ubrelvy]
benefit as rescue medication (migraine headache): not helpful

CN(C)CCC=C1c2ccccc2CCc2ccccc21 [amitriptyline]
benefit as migraine prophylactic agent (migraine headache): without benefit

NCC(CC(=O)O)c1ccc(Cl)cc1 (centres unmarked) [baclofen]
benefit as migraine prophylactic agent (migraine headache): without benefit
benefit as migraine prophylaxis (migraine headache): no benefit
benefit from previous treatment (migraine headache): no benefit

CCCCN1CCCCC1C(=O)Nc1c(C)cccc1C (centres unmarked) [bupivacaine]
pain after local anesthetic injection along superior nuchal line (migraine headache): substantially improved for two days

Oc1ccc2c(c1)[C@@]13CCCC[C@@]1(O)[C@@H](C2)N(CC1CCC1)CC3 [butorphanol]
benefit as rescue medication (migraine headache): without benefit

NC(=O)N1c2ccccc2C=Cc2ccccc21 [carbamazepine]
benefit as migraine prophylactic agent (migraine headache): without benefit

COC1=C(OC)C(=O)C(C/C=C(\C)CC/C=C(\C)CC/C=C(\C)CC/C=C(\C)CC/C=C(\C)CC/C=C(\C)CC/C=C(\C)CC/C=C(\C)CC/C=C(\C)CCC=C(C)C)=C(C)C1=O [coenzyme Q10]
benefit as migraine prophylactic agent (migraine headache): without benefit
benefit as migraine prophylaxis (migraine headache): no benefit
effect on headache frequency (migraine headache): did not affect the frequency of their headaches

O=C(O)Cc1ccccc1Nc1c(Cl)cccc1Cl [diclofenac]
benefit as rescue medication (migraine headache): without benefit

CN1CCC[C@@H]1Cc1c[nH]c2ccc(CCS(=O)(=O)c3ccccc3)cc12 [eletriptan]
benefit as rescue medication (migraine headache): consistently effective

NCC1(CC(=O)O)CCCCC1 [gabapentin]
benefit as migraine prophylactic agent (migraine headache): without benefit
benefit as migraine prophylaxis (migraine headache): no benefit
benefit from previous treatment (migraine headache): no benefit

CC(C)Cc1ccc(C(C)C(=O)O)cc1 (centres unmarked) [ibuprofen]
headache relief (tension headache): may resolve with ibuprofen
benefit from previous treatment (migraine headache): no benefit

CCCCc1nc(Cl)c(CO)n1Cc1ccc(-c2ccccc2-c2nn[nH]n2)cc1 [losartan]
benefit as migraine prophylaxis (migraine headache): no benefit

CCN(CC)CCNC(=O)c1cc(Cl)c(N)cc1OC [metoclopramide]
tolerability (migraine headache): intolerant

C[C@]12C=CC(=O)C=C1CC[C@@H]1[C@@H]2C(=O)C[C@@]2(C)[C@H]1CC[C@]2(O)C(=O)CO [prednisone]
benefit as migraine prophylactic agent (migraine headache): without benefit

CC(C)C[C@H](CN)CC(=O)O [pregabalin]
comorbid neuropathic facial pain (tension headache): treated effectively
benefit as migraine prophylactic agent (migraine headache): without benefit

CC(C)NCC(O)COc1cccc2ccccc12 (centres unmarked) [propranolol]
benefit as migraine prophylactic agent (migraine headache): without benefit
benefit from previous treatment (migraine headache): no benefit
tolerability (migraine headache): caused dizziness

Cc1cc2nc3c(=O)[nH]c(=O)nc-3n(C[C@H](O)[C@H](O)[C@H](O)CO)c2cc1C [riboflavin]
effect on headache frequency (migraine headache): did not affect the frequency of their headaches

CN(C)CCc1c[nH]c2ccc(Cn3cncn3)cc12 [rizatriptan]
adverse effect of rescue medication (migraine headache): severe elevation in their blood pressure
benefit as rescue medication (migraine headache): no longer effective
share of time the rescue medication worked (migraine headache): approximately 20 % of the time

Clc1ccc2nsnc2c1NC1=NCCN1 [tizanidine]
benefit as migraine prophylactic agent (migraine headache): without benefit
benefit as migraine prophylaxis (migraine headache): partially helpful

CC1(C)O[C@@H]2[C@@H](CO[C@@]3(COS(N)(=O)=O)OC(C)(C)O[C@@H]23)O1 [topiramate]
benefit as migraine prophylactic agent (migraine headache): without benefit
severe migraine headache frequency (migraine headache): 5 to 7 days a week
tolerability (migraine headache): could not tolerate the side effects

CCCC(CCC)C(=O)O [valproic acid]
benefit as migraine prophylactic agent (migraine headache): without benefit

CN(C)CCc1c[nH]c2ccc(C[C@H]3COC(=O)N3)cc12 [zolmitriptan nasal spray, zolmitriptan]
benefit as rescue medication (migraine headache): without benefit

NS(=O)(=O)Cc1noc2ccccc12 [zonisamide]
benefit as migraine prophylactic agent (migraine headache): without benefit

B1: Ajovy: prophylactic agent tried for migraines (antibody, chains of the INN, looked up, V domains shown)
VH: EVQLVESGGGLVQPGGSLRLSCAASGFTFSNYWISWVRQAPGKGLEWVAEIRSESDASATHYAEAVKGRFTISRDNAKNSLYLQMNSLRAEDTAVYYCLAYFDYGLAIQNYWGQGTLVTVSS
VL: EIVLTQSPATLSLSPGERATLSCKASKRVTTYVSWYQQKPGQAPRLLIYGASNRYLGIPARFSGSGSGTDFTLTISSLEPEDFAVYYCSQSYNYPYTFGQGTKLEIK
benefit as migraine prophylactic agent (migraine headache): without benefit

B2: Emgality: prophylactic agent prescribed for chronic migraine (antibody, chains of the INN, looked up, V domains shown)
VH: QVQLVQSGAEVKKPGSSVKVSCKASGYTFGNYWMQWVRQAPGQGLEWMGAIYEGTGKTVYIQKFADRVTITADKSTSTAYMELSSLRSEDTAVYYCARLSDYVSGFGYWGQGTTVTVSS
VL: DIQMTQSPSSLSASVGDRVTITCRASKDISKYLNWYQQKPGKAPKLLIYYTSGYHSGVPSRFSGSGSGTDFTLTISSLQPEDFATYYCQQGDALPPTFGGGTKVEIK
frequency of headaches with throbbing, light and sound sensitivity (tension headache): decreased to around once or twice per week
benefit as migraine prophylactic agent (migraine headache): without benefit
benefit of subsequent treatment (migraine headache): reduced the pain somewhat, but had not reduced the frequency or duration
migraine frequency (migraine headache): 2 to 3 days/week
tolerability (migraine headache): caused unwanted side effects
